Data taken from article PMC8472287, “Betulinic Acid Decorated with Polar Groups and Blue Emitting BODIPY Dye: Synthesis, Cytotoxicity, Cell-Cycle Analysis and Anti-HIV Profiling” (Biomedicines, 2021).

Tests used:
BJ = experiment: MTS cytotoxicity assay, BJ; type: cell-based; conditions: Homo sapiens, 72 h, BJ normal fibroblasts, 3-day incubation
From the text: (§1) All cells (if not indicated otherwise) were purchased from the American Tissue Culture Collection (ATCC; Manassas, VA, USA). The highly chemosensitive CCRF-CEM line is derived from T lymphoblastic leukaemia, K562 represent cells of chronic myelogenous leukaemia. Colorectal adenocarcinoma HCT116 cell line and its p53 gene knockout counterpart (HCT116p53−/−, Horizon Discovery Ltd., Cambridge, UK) were used as models to assess the impact of p53 deficiency on cell line sensitivity. A549 cells are derived from lung adenocarcinoma and U2OS from human osteosarcoma. CEM-DNR and K562-Tax are well-characterized daunorubicin and paclitaxel-resistant sublines of CCRF-CEM and K562. The CEM-DNR resistant cells overexpress the P-glycoprotein and LRP protein, the K562-Tax overexpress P-glycoprotein but is losing the expression of LRP, which is present at parental K562 cell line. P-glycoprotein belongs to the ABC transporters’ family and is involved in the primary and acquired multidrug resistance phenomenon by the efflux of toxic compounds, LRP protein is involved in the lysosomal degradation. MRC-5 and BJ cell lines were used as a non-tumour control and represent human fibroblasts. The cells were maintained in Nunc/Corning 80 cm^2 plastic tissue culture flasks and cultured in cell culture medium according to ATCC or Horizon recommendations (DMEM/RPMI 1640 with 5 g/L-glucose, 2 mM glutamine, 100 U/mL penicillin, […] streptomycin, 10% fetal calf serum, and NaHCO3).
(§2) To perform the cytotoxicity MTS assay, cell suspensions were prepared and diluted according to the cell type and the expected target cell density (25,000–35,000 cells/mL) based on cell growth characteristics. Cells were added by an automatic pipettor (30 μL) into 384 well microtiter plates. All tested compounds were dissolved in 100% DMSO and four-fold dilutions of the intended test concentration were added in 0.15 μL aliquots at time zero to the microtiter plate wells by the echo-acoustic liquid handler Echo550 (Labcyte, San Jose, CA, USA). The experiments were performed in technical duplicates and at least three biological replicates. The cells were incubated with the tested compounds for 72 h at 37 °C, in a 5% CO2 atmosphere at 99% humidity. At the end of the incubation period, the cells were assayed by using the MTS test. Aliquots (5 µL) of the MTS stock solution were pipetted into each well and incubated for an additional 1–4 h. After this incubation period, the optical density (OD) was measured at 490 nm with an Envision microplate reader (Perkin Elmer, Waltham, Massachusetts, USA). Tumour cell survival (TCS) was calculated using the following equation: TCS = (ODdrug-exposed well/mean ODcontrol wells) × 100%.

CEM-DNR = experiment: MTS cytotoxicity assay, CEM-DNR; type: cell-based; conditions: Homo sapiens, 72 h, CEM-DNR (daunorubicin resistant), 3-day incubation
From the text: as §1, §2

HCT116p53−/− = experiment: MTS cytotoxicity assay, HCT116p53−/−; type: cell-based; conditions: Homo sapiens, HCT116-p53-null, 72 h, HCT116p53−/− (null p53 gene), 3-day incubation
From the text: as §1, §2

CCRF-CEM lymphoblasts [1] = experiment: Mitotic marker pH3Ser10 flow cytometry; type: cell-based, human; conditions: 5 × IC50
Method: (§3) CCRF-CEM cells were seeded in 6-well plates at a density of 1 × 10^6/well. […] Cells were then harvested, washed with cold 1 × PBS and fixed in ice-cold 70% ethanol. Fixed cells were incubated overnight at −20 °C, washed in hypotonic citrate buffer, treated with RNase (50 μg mL^−1) and incubated with propidium iodide for 15 min. DNA content was analysed using Becton Dickinson flow cytometer and cell cycle data were analysed in the program ModFitLT (Verity, Carrollton, TX, USA). Apoptosis was measured in a logarithmic model expressing the percentage of the particles with propidium content lower than cells in G0/G1 phase (<G1) of the cell cycle. The mitotic marker pH3Ser10 antibody (Sigma) and secondary anti-mouse-FITC antibody (Sigma) were used for labelling and subsequent flow cytometry analysis of ethanol-fixed CCRF-CEM cells.

U2OS = experiment: MTS cytotoxicity assay, U2OS; type: cell-based; conditions: Homo sapiens, 72 h, 3-day incubation
From the text: as §1, §2

CCRF-CEM = experiment: MTS cytotoxicity assay, CCRF-CEM; type: cell-based; conditions: Homo sapiens, 72 h, 3-day incubation
From the text: as §1, §2

in vitro = conditions: human
K562-Tax = experiment: MTS cytotoxicity assay, K562-Tax; type: cell-based; conditions: Homo sapiens, 72 h, K562-Tax (paclitaxel-resistant), 3-day incubation
From the text: as §1, §2

MRC-5 = experiment: MTS cytotoxicity assay, MRC-5; type: cell-based; conditions: Homo sapiens, MRC5, 72 h, MRC-5 normal fibroblasts, 3-day incubation
From the text: as §1, §2

CCRF-CEM lymphoblasts [2] = experiment: BrDU incorporation analysis (DNA synthesis); type: cell-based, human; conditions: 24 h incubation
Method: Cells were cultivated as in the method above and pulse-labelled with 10 μM 5-bromo-2-deoxyuridine (BrDU) for 30 min before collection to the test tubes. The cells were washed with cold 1 × PBS and fixed in ice-cold 70% ethanol. Before analysis, they were washed with 1 × PBS and incubated in 2M HCl for 30 min at room temperature. Following neutralization with 0.1M Na2B4O7 (borax), the cells were washed with 0.5% Tween-20 and 1% BSA in 1 × PBS. The cell pellets were stained using a primary anti-BrdU antibody (Exbio, Vestec, Czech Republic) for 30 min at room temperature and a secondary anti-mouse-FITC antibody (Sigma). The samples were then incubated with propidium iodide (0.1 mg mL^−1), treated with RNase A (0.5 mg mL^−1) for 1 h at room temperature in the dark and analysed as above.

A549 = experiment: MTS cytotoxicity assay, A549; type: cell-based; conditions: Homo sapiens, 72 h, 3-day incubation
From the text: as §1, §2

K562 = experiment: MTS cytotoxicity assay, K562; type: cell-based; conditions: Homo sapiens, 72 h, 3-day incubation
From the text: as §1, §2

[3] = test system: U2OS-ER, U2OS-Mito and U2OS-GA cell lines; experiment: Live cell colocalization experiments; type: cell-based, human; conditions: 10 µM, 1 h, Mander's coefficient
Method: (§4) U2OS cell line (ATCC, USA) was transduced with premade lentiviral particles (Vectalis-TaKaRa, Japan) with sequences that express fluorescent protein tag mCherry targeted to specific subcellular locations. All cell lines were prepared according to the vendor’s instructions. The U2OS-Nuc cell line was prepared by using rLV.EF1.mCherry-Nuc-9 (cat. n. 0023VCT), containing a NLS sequence that imports protein into the nucleus. The U2OS-ER cell line was transduced by rLV.EF1.mCherry-ER-9 (cat. n. 0025VCT), which contains a calreticulin signal sequence and a KDEL sequence that associates protein with the endoplasmic reticulum. The U2OS-GA cell line was transduced by rLV.EF1.mCherry-Golgi-9 (cat. n. 0022VCT), containing a human GT precursor, a protein localized in Golgi Apparatus. The U2OS-Mito cell line was prepared by using rLV.EF1.mCherry-Mito-9 (cat. n. 0024VCT), containing a mitochondrial targeting sequence.
(§5) U2OS cells with fluorescent fusion proteins (density 1.0 × 10^3 per well) were seeded into 384 CellCarrier plates (Perkin Elmer, Waltham, MA, USA) and pre-incubated for 24 h at 37 °C and 5% CO2. The attached cells were treated with tested compounds in concentration 10 µM for 1 h and subsequently rinsed with fresh media. The live-cell imaging was performed by Cell Voyager CV7000 (Yokogawa, Tokyo, Japan) spinning disc confocal microscopy system at 37 °C in a 5% CO2 atmosphere. Live cells were monitored by a 60 × water immersion objective. The fluorescent signal was excited by lasers (405 nm and 561 nm) and the emission was filtered by bandpass filters (BP 445/45 and BP 595/20). All images were post-processed, and Pearson’s and Mander’s coefficients were calculated using the JACoP plugin in Image-J software.

HCT116 = experiment: MTS cytotoxicity assay, HCT116; type: cell-based; conditions: Homo sapiens, HCT-116, 72 h, 3-day incubation
From the text: as §1, §2

U2OS-Nuc cell line = experiment: Live cell imaging, pilot experiment; type: cell-based, human; conditions: 10 µM, 1 h incubation
Method: as §4, §5

[4] = test system: CA-SP1 processing of HIV-1 Gag polyprotein; experiment: Western blot of released virions with anti-HIV-1 CA antibody; type: cell-based
[5] = test system: VSV-G pseudotyped HIV-1 particles; experiment: microbe, parasite or virus in culture; type: cell-based; conditions: Human immunodeficiency virus 1, HEK293, 48 h, read-out: IC50i (50% infection inhibition)
CCRF-CEM lymphoblasts [6] = experiment: Cell cycle and apoptosis analysis (flow cytometry, propidium iodide); type: cell-based, human; conditions: 5 × IC50
Method: as §3

CCRF-CEM lymphoblasts [7] = experiment: BrU incorporation analysis (RNA synthesis); type: cell-based, human; conditions: 24 h, 5 × IC50 (high concentration)

SMILES | cytotoxic effect in the cell line panel (in words) (entire cell line panel) | IC50 (BJ) [µM] | IC50 (CEM-DNR) [µM] | IC50 (HCT116p53−/−) [µM] | rate of cell division by mitotic marker pH3Ser10 (in words) (CCRF-CEM lymphoblasts [1]) | IC50 (U2OS) [µM] | IC50 (CCRF-CEM) [µM] | IC50 (in vitro) [µM] | IC50 (K562-Tax) [µM] | IC50 (MRC-5) [µM] | fraction of proliferating BrDU positive CCRF-CEM cells (in words) (CCRF-CEM lymphoblasts [2]) | IC50 (A549) [µM] | IC50 (K562) [µM] | colocalization with cellular structures [3] | IC50 (HCT116) [µM] | detection in living cells (U2OS-Nuc cell line) | CA forms identified in released viruses (CA-SP1 processing) [4] | IC50 [5] [µM] | increase of the percentage of cells in the S-phase compared to untreated control (CCRF-CEM lymphoblasts [6]) | RNA synthesis by BrU (in words) (CCRF-CEM lymphoblasts [7])
C=C(C)[C@@H]1CC[C@]2(C(=O)NCCCN)CC[C@]3(C)[C@H](CC[C@@H]4[C@@]5(C)CC[C@H](OC(=O)CCNC6=C7C=CC=[N+]7[B-](F)(F)n7cccc76)C(C)(C)[C@@H]5CC[C@]43C)[C@@H]12 [Compound 6, (3β)-N-(3-Aminopropyl)-3-[N´-(4,4-difluoro-4-bora-3a,4a-diaza-s-indacene-8-yl)-β-alanyl]-oxy-lup-20(29)-ene-28-amide] | high cytotoxicity | 8.37 | 11.5 | 3.39 | low rate of cell division | 5 | 1.55 | 12 | 31.8 | 8.07 | reduced the fraction of proliferating BrDU positive CCRF-CEM cells | 6.65 | 5.25 | almost perfectly label mitochondria and endoplasmic reticulum | 3.85 | detected in living cells | – | – | – | –
C=C(C)[C@@H]1CC[C@]2(C(=O)NCCCNC3=C4C=CC=[N+]4[B-](F)(F)n4cccc43)CC[C@]3(C)[C@H](CC[C@@H]4[C@@]5(C)CC[C@H](O)C(C)(C)[C@@H]5CC[C@]43C)[C@@H]12 [Compound 4, (3β)-N-[N’-(4,4-Difluoro-4-bora-3a,4a-diaza-s-indacene-8-yl)-3-aminopropyl]-3-hydroxylup-20(29)-ene-28-amide] | inactive | > 50 | > 50 | > 50 | – | > 50 | 23.7 | > 40 | > 50 | > 50 | – | > 50 | > 50 | almost perfectly label mitochondria and endoplasmic reticulum | > 50 | detected in living cells | Only completely processed p24 CA | 44.1 | – | –
C=C(C)[C@@H]1CC[C@]2(C(=O)N3CCN(CCNC(=O)OC(C)(C)C)CC3)CC[C@]3(C)[C@H](CC[C@@H]4[C@@]5(C)CC[C@H](OC(C)=O)C(C)(C)[C@@H]5CC[C@]43C)[C@@H]12 [Compound 12, (3β)-28-(4-{2-[(Tert-butoxycarbonyl)amino]ethyl}piperazine-1-yl)-28-oxolup-20(29)-ene-3-yl acetate] | inactive | > 50 | > 50 | > 50 | low rate of cell division | > 50 | 9.62 | > 40 | > 50 | > 50 | increased the percentage of cells incorporating BrDU | > 50 | > 50 | – | > 50 | – | Only completely processed p24 CA | 31.9 | about 50% | –
C=C(C)[C@@H]1CC[C@]2(C(=O)NCCCN=[N+]=[N-])CC[C@]3(C)[C@H](CC[C@@H]4[C@@]5(C)CC[C@H](OC(=O)CC(C)(C)C(=O)O)C(C)(C)[C@@H]5CC[C@]43C)[C@@H]12 [Compound 2, 4-{[(3β)-28-[(3-Azidopropyl)amino]-28-oxolup-20(29)-ene-3-yl]oxy}-2,2-dimethyl-4-oxo-butanoic acid] | medium cytotoxicity | 25.3 | 10.2 | 29.2 | low rate of cell division | 22.2 | 8.14 | 36.4 | 15.9 | 24.2 | increased the percentage of cells incorporating BrDU | 22.9 | 26 | – | 19.4 | – | not only fully processed p24 CA, but also p25 CA-SP1 protein | 11.7 | about 50% | stalled RNA synthesis
CSC1=C2C=CC=[N+]2[B-](F)(F)n2cccc21 [BODIPY-SMe, 8-thiomethyl BODIPY, reference compound] | – | – | – | – | – | – | – | – | – | – | – | – | – | perfect colocalization in all studied cell lines | – | penetrate cell compartments | – | – | – | –
